Reference: paper PMC7615677 (Science translational medicine, 2023)
“Also recorded” adds a separate entry of the source.

Legend:
[1] = In vitro metabolism, cryopreserved hepatocytes; assay type: in vitro ADME, mouse
Method: (§1) Cell viability was determined using trypan blue exclusion. The incubation was performed on a plate shaker (Heidolph Titrimax 100, 900 rpm) placed in a humidified incubator (37°C, 7.5% CO2) for 240 min. The reaction was initiated with the addition of compound with samples taken periodically and quenched with the addition of acetonitrile containing internal standards (metolazone and diazepam). Quenched samples were maintained on ice for approximately 20-30 min, centrifuged (for 5 min) and the supernatant analyzed by LC-MS.
(§2) In vitro intrinsic clearance (CLint, μL/min/mg or μL/min/10^6 cells) values were calculated from the apparent first order degradation rate constant divided by the microsome concentration or the hepatocyte cell number (10^6 viable cells/mL). In vitro CLint values were then divided by the fraction unbound in the in vitro test system (to give CLint,u) and scaled to in vivo values (mL/min/kg) using published physiological scaling factors ([28]). Blood clearance in each species was then calculated using the well-stirred model of hepatic extraction (equation 2) where Q is the hepatic blood flow and fu,blood is calculated from fu,plasma/B:P: [2] PredictedCLblood=Q x fu,blood x CLint,u/Q+fu,blood x CLint,u
(§3) Blood clearance values were converted to plasma clearance by multiplying by the B:P.

[2] = In vitro cytotoxicity assay; assay type: cell-based; conditions: human, MRC-5 human fetal lung fibroblasts
L. infantum = test: PK/PD analysis of liver burden versus cumulative unbound AUC; assay type: in vivo, hamsters; conditions: Hamster – L. infantum; estimated using the fitted parameters
Source text: To determine the correlation between the pharmacokinetic (PK) and pharmacodynamic (PD) data, repeat dose profiles in mice and hamsters following single and twice daily dosing were simulated using the fitted parameters.
Other parameters were less well correlated to efficacy, presumably given that none reflect the cumulative exposure profile with an extended treatment regimen. […] Results for mice infected with L. donovani were similar to those for L. infantum (Table S15).

HepG2 cells = test: Seahorse mitochondrial stress test; assay type: cell-based
Method: (§4) Seahorse® 96 well plates were seeded with HepG2 cells and incubated overnight (37°C, 5% CO2). The media in all plate wells was then replaced with Seahorse® assay media and the plates were incubated (37°C, CO2 free) for a further 1 hour before placing in the Seahorse® XFe96 analyser (Agilent Technologies Inc, USA). […] OCR and ECAR were measured for 45 minutes before the sequential addition of oligomycin (ATP synthase inhibitor), FCCP (carbonyl cyanide 4-(trifluoromethoxy) phenylhydrazone, protonophore uncoupler) and rotenone plus antimycin A (Electron transport chain Complex I and III inhibitors respectively). Multiple measurements of OCR and ECAR were made following each of these additions.
(§5) Mean ± standard deviation of the compound ratio data were plotted vs log concentration and curves fitted (as described in [24]) and the minimum effective concentration (MEC) determined using limits based on the DMSO vehicle mean ± 2 standard deviations or, where these limits were deemed too narrow, the DMSO vehicle mean ± minimum limits set for each parameter. The AC50 was calculated using the curve and historical maximum (activation) and minimum (inhibition) responses and is defined as the concentration at which 50% of the maximum or minimum effect is observed, provided a clear concentration response relationship is seen.

[3] = Seahorse mitochondrial stress test; assay type: cell-based; conditions: human, HepG2 cells; read-out: OCR Basal AC50
Method: as §4, §5

[4] = In vitro metabolism, cryopreserved hepatocytes; assay type: in vitro ADME, rat
Method: as §1, §2, §3

Caco-2 cell monolayers = test: Caco-2 permeability; assay type: in vitro ADME
Method: (§6) The ionization constant (pKa), octanol-pH 7.4 buffer partition coefficient (Log D7.4), solubility in biorelevant buffers (FaSSIF-V2, FeSSIF-V2, FaSSGF and pH 7.4 phosphate buffered saline (PBS)) and Caco-2 permeability were determined according to previously published methods ([10]).

Caco-2 permeability = assay type: in vitro ADME; conditions: human
Method: as §6

CHO-K1 cells = test: In vitro micronucleus assay; assay type: cell-based; conditions: absence or presence of rat liver S9
Method: The treatment time was 24 h without metabolic activation (rat liver S9) and 3 h with activation. The positive controls were bleomycin sulfate and cyclophosphamide, respectively.

[5] = Binding to liver microsomes; assay type: in vitro ADME; conditions: pH 7.4; human liver microsomes 1 mg/mL; read-out: Microsome fraction unbound
Method: Dialysis was conducted for 6 h and parallel non-dialyzed samples were included to confirm the absence of compound degradation. Binding to hepatocytes (at a cell density of 1 x 10^6 cells/mL) was calculated from the measured microsomal binding (at 1 mg/mL) as described previously ([26]). The fraction unbound (fu) was determined from the ratio of the dialysate to the donor concentration, assuming that the system was at steady state at the end of the dialysis period. For plasma, the data were corrected for the dilution factor to give a binding value for neat plasma according to previously published methods ([27]).

L. donovani = test: Leishmania intramacrophage in vitro assay; assay type: cell-based
Method: A drug incubation period of 96 h was applied, and cells were stained with Giemsa for microscopic evaluation of cellular amastigote burdens. Percentage reduction compared to the burden in the infected non-treated control wells was used as a measure for drug activity.
Alternatively, differentiated macrophage host cells derived from THP-1 (human leukemia monocytes) were infected at a multiplicity of infection of 1:2.5 (ratio of host cells to parasites) with L. donovani MHOM/IN/80/DD8 culture-maintained promastigotes. L. donovani MHOM/IN/80/DD8 (ATCC 50212) promastigote parasites and THP-1 (ATCC TIB202) cells were maintained as previously described ([20]). A drug incubation period of 96 h was applied, plates fixed with 4% paraformaldehyde and stained with SYBR® green and CellMask Deep Red™ (ThermoFisher Scientific). Images were acquired on an Opera high-content imaging system (PerkinElmer). Healthy host (THP-1) cells and intracellular amastigotes were identified using CellMask Deep Red cytoplasmic and SYBR green nuclear area and intensities, with intracellular parasites identified based on spot detection algorithms (size and intensity measurements used to define parasite nucleus) to determine the number of parasites present within THP-1 host cells. An infected cell was defined as a host cell containing >3 parasites within the cytoplasm boundary. Compound activity was determined based on the number of infected cells normalized to the positive (10μM DNDI-1044) and negative (0.4% DMSO) controls. Non-linear sigmoidal dose-response curves with no constraints were plotted, and IC50 was calculated. The IC50s were calculated from two independent experiments.

[6] = L. donovani MHOM/ NP/2003/ BPK282/0-cl4
[7] = L. donovani MHOM/ET/2007/LLM-1600
[8] = L. donovani MHOM/NP/03/BPK275/0-cl18

## Cc1[nH]c2nc(N)nc(C)c2c1-c1ccc(C#N)c2c1OCO2 [DNDI-6174]
[1]; Mouse
  Hepatocyte predicted in vivo CLplasma: 17 mL/min/kg
[1]; mouse, cryopreserved hepatocytes
  hepatocyte CLint at 0.5 µM: 9.7 ± 0.091 µL/min/1e6 cells
[2]
  CC50: > 64000 nM
L. infantum
  unbound ED95: 3.6
HepG2 cells
  OCR Basal minimum effect concentration (MEC): 95.6 µM
  Reserve Capacity, ECAR, Maximum Capacity, ATP production, in words: No significant response observed on reserve; also recorded: no changes in Reserve Capacity, ECAR, Maximum Capacity or ATP production
  margin of Seahorse OCR MEC over free concentration at predicted human therapeutic plasma Cmax: approximately 187 fold
HepG2 cells; 200 μM
  ECAR, in words: transient increase
  OCR Basal maximum reduction: 14%
[3]
  AC50 at 45 min: > 200000 nM
[4]; Rat
  Hepatocyte predicted in vivo CLplasma: 2.7 mL/min/kg
[4]; rat, cryopreserved hepatocytes
  hepatocyte CLint at 0.5 µM: 5.3 ± 0.19 µL/min/1e6 cells
Caco-2 cell monolayers
  A-B Mass balance: 98%
  B-A Mass balance: 96%
Caco-2 permeability
  Papp A→B: 71 ×10⁻⁶ cm/s
  Papp B→A: 72 ×10⁻⁶ cm/s
CHO-K1 cells
  genotoxicity, in words: not genotoxic
[5]
  fraction unbound at 6 h, 0.5 µM: 0.51
L. donovani; [6]
  EC50: 50 nM
  EC90: 140 nM
L. donovani; L. donovani MHOM/ET/67/HU3
  EC50: 90 nM
  EC90: 2000 nM
L. donovani; [7]
  EC50: 80 nM
  EC90: 280 nM
L. donovani; L. donovani MHOM/IN/80/DD8
  EC50: 170 nM
  EC90: 490 nM
L. donovani; [8]
  EC50: 40 nM
  EC90: 120 nM
